Source: patent publication US6514997B2, “Antipicornaviral compounds and compositions, their pharmaceutical uses, and materials for their synthesis” (Agouron Pharmaceuticals, Inc., priority 1999, dated 2003)
Like-named read-outs stand apart in the source and are kept apart here.

Tests used:
[1] = target: T1, Recombinant rhinovirus 3C protease, serotype 14 (Human rhinovirus 14, UniProt P03303); assay: Inhibition of rhinovirus 3C protease (FRET assay, kobs/[I]), serotype 14; type: biochemical; conditions: for kinact/KI: pH 7.6, read-out: kobs/[I] (3C protease inhibition activity)
T1 construct: Recombinant rhinovirus 3C proteases; made in house
Method: Inhibition of Rhinovirus 3C Protease:
Stock solutions (50 mM, in DMSO) of various compounds were prepared; dilutions were in the same solvent. Recombinant rhinovirus 3C proteases (see Birch et al., “Purification of recombinant human rhinovirus 14 3C protease expressed in Escherichia coli,” Protein Expr. Pur. (1995), vol. 6(5), 609-618) from serotypes 14, 16, and 2 were prepared by the following standard chromatographic procedures: (1) ion exchange using Q Sepharose Fast Flow from Pharmacia; (2) affinity chromatography using Affi-Gel Blue from Biorad; and (3) sizing using Sephadex G-100 from Pharmacia. Each assay sample contained 2% DMSO, 50 mM tris pH 7.6, 1 mM EDTA, a test compound at the indicated concentration, approximately 1 μM substrate, and 50-100 nM protease. The kobs/I values were obtained from reactions initiated by addition of enzyme rather than substrate. RVP activity was measured in the fluorescence resonance energy transfer assay. The substrate was (N-terminal) DABCYL-([…]-EDANS. In the uncleaved peptide, the EDANS fluorescence was quenched by the proximal DABCYL moiety. When the peptide was cleaved, the quenching was relieved, and activity was measured as an increase in fluorescence signal. The tabulated data in the column designated kobs/[I] were measured from progress curves in enzyme start experiments.

HRV-14 = assay: Antirhinoviral H1-HeLa cell culture assay (XTT cell protection, EC50), HRV-14; type: cell-based, human rhinovirus (HRV) serotype-14 in H1-HeLa cells
Method: (§1) Antirhinoviral H1-HeLa Cell Culture Assay:
(§2) In this cell protection assay, the ability of compounds to protect cells against HRV infection was measured by the XTT dye reduction method, which is described in Weislow et al., J. Natl. Cancer Inst. […] H1-HeLa cells were infected with HRV-14 at a multiplicity of infection (m.o.i.) of 0.13 (virus particles/cell) or mock-infected with medium only. Infected or mock-infected cells were resuspended at 8×10^5 cells per mL, and incubated with appropriate concentrations of the compounds to be tested. Two days later, XTT/PMS was added to test plates and the amount of formazan produced was quantified spectrophotometrically at 450/650 nm. […] The therapeutic index (TI) was calculated by dividing the CC50 value by the EC50 value.
(§3) All strains of human rhinovirus (HRV) for use in this assay were purchased from American Type Culture Collection (ATCC), except for HRV serotype-14 (produced from the infectious cDNA clone constructed by Dr. Robert Rueckert, Institute for Molecular Virology, University of Wisconsin, Madison, Wis.). HRV stocks were propagated and viral assays were performed in H1-HeLa cells (ATCC). Cells were grown in minimal essential medium with 10% fetal bovine serum, available from Life Technologies (Gaithersburg, Md.).

H1-HeLa cells = assay: Cytotoxicity (CC50) in mock-infected H1-HeLa cells, XTT dye reduction; type: cell-based, human
Method: as §2, §3
(§4) Coxsackievirus types A-21 (CAV-21) and B3 (CVB3) were purchased from American Type Culture Collection (ATCC, Rockville, Md.). Virus stocks were propagated and antiviral assays were performed in H1-HeLa cells (ATCC). Cells were grown in minimal essential medium with 10% fetal bovine serum (Life Technologies, Gaithersburg, Md.). The ability of the compounds of this invention to protect cells against either CAV-21 or CVB3 infection was measured by the XTT dye reduction method. This method is described in Weislow et al., J. Natl. Cancer Inst. […] H1-HeLa cells were infected with CAV-21 or CVB3 at a multiplicity of infection (m.o.i.) of 0.025 or 0.075, respectively, or mock-infected with medium only. H1-HeLa cells were plated at 4×10^4 cells per well in a 96-well plate and incubated with appropriate concentrations of the test compound. One day (CVB3) or two days (CAV-21) later, XTT/PMS was added to test plates and the amount of formazan produced was quantified spectrophotometrically at 450/650 nm. […] The therapeutic index (TI) was calculated by dividing the CC50 by the EC50.

[2] = system: strains of human rhinovirus (HRV); assay: Antirhinoviral H1-HeLa cell culture assay (XTT cell protection, EC50), other HRV strains; type: cell-based, human rhinovirus in H1-HeLa cells; conditions: read-out: EC50
Method: as §1
In this cell protection assay, the ability of compounds to protect cells against HRV infection was measured by the XTT dye reduction method, which is described in Weislow et al., J. Natl. Cancer Inst. (1989), vol. 81, 577-586. H1-HeLa cells were infected with HRV-14 at a multiplicity of infection (m.o.i.) of 0.13 (virus particles/cell) or mock-infected with medium only. Infected or mock-infected cells were resuspended at 8×10^5 cells per mL, and incubated with appropriate concentrations of the compounds to be tested. Two days later, XTT/PMS was added to test plates and the amount of formazan produced was quantified spectrophotometrically at 450/650 nm. […] The therapeutic index (TI) was calculated by dividing the CC50 value by the EC50 value.
as §3

[3] = Cytotoxicity (CC50) in mock-infected H1-HeLa cells, XTT dye reduction; type: cell-based, human; conditions: human, H1-HeLa cells, mock-infected; line of HRV-14
Method: as §2, §3, §4

T1 sequence (P03303 1538-1719): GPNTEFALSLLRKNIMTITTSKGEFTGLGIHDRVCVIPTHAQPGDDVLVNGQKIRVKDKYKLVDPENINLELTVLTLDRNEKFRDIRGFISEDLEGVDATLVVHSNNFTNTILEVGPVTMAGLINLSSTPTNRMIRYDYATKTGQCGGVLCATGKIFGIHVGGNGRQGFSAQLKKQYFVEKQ

In the case of `CCOC(=O)/C=C/[C@H](C[C@@H]1CCNC1=O)NC(=O)[C@H](CC)n1cc(C(F)(F)F)cc(NC(=O)c2cc(C)on2)c1=O` [Compound 68, trans-(2′S,3″″S,4S)-4-[2′-({[1″-(5′″-Methylisoxazol-3′″-yl)methanoyl]amino}-oxotrifluoromethyl-2″H-pyridin-1″-yl)butanoylamino]-5-(2″″-oxopyrrolidin-3″″-yl)pent-2-enoic Acid Ethyl Ester], the kinact/KI ([1]; HRV-14 3C protease) is reported as 39500 M⁻¹ s⁻¹.

With `CCC(C(=O)N[C@H](/C=C/C(=O)OCC(C)(C)C)C[C@@H]1CCNC1=O)n1cccc(NC(=O)c2cc(C)on2)c1=O` (relative stereo) [Compound 42, trans-(2′S,3′″″S,4S)-4-[2′-(3″-{[1′″-(5″″-Methylisoxazol-3″″-yl)methanoyl]amino}-2′″-oxo-2′″H-pyridin-1′″-yl)butanoylamino]-5-(2′″″-oxopyrrolidin-3′″″-yl)pent-2-enoic Acid 2,2-Dimethylpropyl Ester] the “kobs/[I] (3C protease inhibition activity)” value ([1]; HRV-14) was 38,200 M^−1s^−1, the EC50 (HRV-14; HRV-14, read-out: EC50) was 168 nM and the CC50 (H1-HeLa cells; line of HRV-2) was > 10000 nM. For the same compound, the CC50 (H1-HeLa cells; line of HRV-3) was > 10000 nM, the CC50 (H1-HeLa cells; line of HRV-9) was > 10000 nM and the CC50 (H1-HeLa cells; line of HRV-14) was > 10000 nM. The CC50 (H1-HeLa cells; line of HRV-16) was > 10000 nM, the CC50 (H1-HeLa cells; line of HRV-25) was > 10000 nM and the CC50 (H1-HeLa cells; line of HRV-39) was > 10000 nM. The EC50 ([2]; HRV-2) was 161 nM, the EC50 ([2]; HRV-3) was 152 nM and the EC50 ([2]; HRV-9) was 521 nM. The EC50 ([2]; HRV-16) was 402 nM, the EC50 ([2]; HRV-25) was 611 nM and the EC50 ([2]; HRV-39) was 158 nM.

In the case of `C#CC[C@@H](C(=O)N[C@H](/C=C/C(=O)OCC(C)(C)C)C[C@@H]1CCNC1=O)n1cccc(NC(=O)c2cc(C)on2)c1=O` (relative stereo) [Compound 32, trans-(2′S,3″″S,4S)-4-(2′-{3″-[(5′″-Methylisoxazole-3′″-carbonyl)amino]-2″-oxo-2″H-pyridin-1″-yl}-pent-4′-ynoylamino)-5-(2″″-oxopyrrolidin-3″″-yl)pent-2-enoic acid 2,2-Dimethylpropyl Ester], the “kobs/[I] (3C protease inhibition activity)” value ([1]; HRV-14) is reported as 127,500 M^−1s^−1, the EC50 (HRV-14; HRV-14, read-out: EC50) is reported as 126 nM and the CC50 (H1-HeLa cells; line of HRV-1A) is reported as > 10000 nM. For the same compound, the CC50 (H1-HeLa cells; line of HRV-2) was > 10000 nM, the CC50 (H1-HeLa cells; line of HRV-3) was > 10000 nM and the CC50 (H1-HeLa cells; line of HRV-9) was > 10000 nM. The CC50 (H1-HeLa cells; line of HRV-10) was > 10000 nM, the CC50 (H1-HeLa cells; line of HRV-14) was > 10000 nM and the CC50 (H1-HeLa cells; line of HRV-16) was > 10000 nM. The CC50 (H1-HeLa cells; line of HRV-25) was > 10000 nM, the CC50 (H1-HeLa cells; line of HRV-39) was > 10000 nM and the CC50 (H1-HeLa cells; line of HRV-87) was > 10000 nM. For the same compound, the EC50 ([2]; HRV-1A) was 179 nM, the EC50 ([2]; HRV-2) was 105 nM and the EC50 ([2]; HRV-3) was 59 nM. The EC50 ([2]; HRV-9) was 500 nM, the EC50 ([2]; HRV-10) was 156 nM and the EC50 ([2]; HRV-16) was 184 nM. For the same compound, the EC50 ([2]; HRV-25) was 547 nM, the EC50 ([2]; HRV-39) was 410 nM and the EC50 ([2]; HRV-87) was 33 nM.

In the case of `Cc1cc(C(=O)Nc2ccc3n(c2=O)[C@H](C(=O)N[C@H](/C=C2\CCOC2=O)C[C@@H]2CCNC2=O)CC3)no1` [Compound 38, trans-(2″S,3S,3′″S)-6-[(5′-Methylisoxazole-3′-carbonyl)amino]-5-oxo-1,2,3,5-tetrahydroindolizine-3-carboxylic Acid [2″-(2′″-oxodihydrofuran-3′″-ylidene)-1″-(2″″-oxopyrrolidin-3″″-ylmethyl)ethyl]amide], the EC50 (HRV-14; Rhinovirus B, HRV14, H1-HeLa, HRV-14, read-out: EC50) is reported as 16800 nM and the CC50 at 2 days [3] is reported as > 100000 nM.

For `CC[C@@H](C(=O)N[C@H](/C=C/C(=O)OC1CCCCCC1)C[C@@H]1CCNC1=O)n1cccc(NC(=O)c2cc(C)on2)c1=O` [Compound 61, trans-(2′S,3′″″S,4S)-4-[2′-(3″-{[1′″-(5″″-Methylisoxazol-3″″-yl)methanoyl]amino}-2′″oxo-2′″H-pyridin-1′″-yl)butanoylamino]-5-(2′″″-oxopyrrolidin-3′″″-yl)pent-2-enoic Acid Cycloheptyl Ester], the kinact/KI ([1]; HRV-14 3C protease) was 15000 M⁻¹ s⁻¹.

For `Cc1cc(CCCCCCCOc2ccc(C3=N[C@@H](C)CO3)cc2)on1` [WIN 52084, reference compound], the EC50 (HRV-14; HRV-14, read-out: EC50) was 70 nM and the CC50 (H1-HeLa cells; HRV-14) was > 10000 nM.

In the case of `CCOC(=O)/C=C/[C@H](C[C@@H]1CCNC1=O)NC(=O)[C@@H](Cc1ccccc1)n1ccc2cc[nH]c2c1=O` [Compound 4], the kinact/KI ([1]; HRV-14) is reported as 574 M⁻¹ s⁻¹.

`CCOC(=O)/C=C/[C@H](CCC(N)=O)NC(=O)[C@H](Cc1ccc(F)cc1)n1cccc(NC(=O)C(F)(F)F)c1=O` [Compound 24, trans-(2′S,4S)-6-Carbamoyl-4-{3′-(4″-fluorophenyl)-2′-[2′″-oxo-3′″-(2″″,2″″,2″″-trifluoroacetylamino)-2′″H-pyridin-1′″-yl]propionylamino}hex-2-enoic Acid Ethyl Ester] showed a kinact/KI ([1]; HRV-14) of 8800 M⁻¹ s⁻¹.

With `Cc1cc(CCCCCCCOc2ccc(C3=NCCO3)cc2)on1` [WIN 51711, reference compound] the EC50 (HRV-14; HRV-14, read-out: EC50) was 780 nM and the CC50 (H1-HeLa cells; HRV-14) was > 60000 nM.

For `Cc1cc(C(=O)Nc2cccn([C@@H](Cc3ccc(F)c(F)c3)C(=O)N[C@H](/C=C/C(=O)O)C[C@@H]3CCNC3=O)c2=O)no1` [Compound 51, trans-(2′S,3″″″S,4S)-4-[3′-(3″,4″-Difluorophenyl)-2′-(3′″-{[1″″-(5′″″-methylisoxazol-3′″″-yl)methanoyl]amino}-2″″-oxo-2″″H-pyridin-1″″-yl)propanoylamino]-5-(2″″″-oxopyrrolidin-3″″″-yl)pent-2-enoic Acid], the EC50 (HRV-14; Rhinovirus B, HRV14, H1-HeLa) was > 10000 nM, the CC50 at 2 days [3] was > 10000 nM and the CC50 (H1-HeLa cells; line of HRV-9) was > 10000 nM. For the same compound, the CC50 (H1-HeLa cells; line of HRV-16) was > 10000 nM, the CC50 (H1-HeLa cells; line of HRV-25) was > 10000 nM and the EC50 ([2]; Human rhinovirus sp., HRV9, H1-HeLa, HRV-9) was > 1000 nM. For the same compound, the EC50 ([2]; Human rhinovirus sp., HRV16, H1-HeLa, HRV-16) was > 10000 nM and the EC50 ([2]; Human rhinovirus sp., HRV25, H1-HeLa, HRV-25) was > 10000 nM.

Compound `CCOC(=O)/C=C/[C@H](C[C@@H]1CCNC1=O)NC(=O)[C@H](Cc1ccccc1)N1CCc2c(C)c[nH]c2C1=O` [Compound 45, 4S-[2S-(3-Methyl-7-oxo-1,4,5,7-tetrahydro-pyrrolo[2,3-c]pyridin-6-yl)3-phenyl-propionylamino]-5-(2-oxo-pyrrolidin-3-yl)pent-2(trans)-enoic acid ethyl ester] has a kinact/KI ([1]; HRV-14) of 673 M⁻¹ s⁻¹.
